# Tests used:
# Rattus norvegicus = assay: Dose (ip) giving half-maximal reversal of the gamma-butyrolactone-induced increase in DOPA formation of rat striatum; format: functional
# [1] = Ratio of ED50 values for the inhibition of locomotor activity to reversal of reserpine-induced depression; format: functional
# Mus musculus [2] = assay: Dose required for inhibition of locomotor activity in mice (sc)
# Mus musculus [3] = assay: Dose required for reversal of reserpine-induced depression in mice (sc)
SMILES,ED50 (Rattus norvegicus) [mg/kg],Ratio [1],ED50 (Mus musculus [2]) [mg/kg],ED50 (Mus musculus [3]) [mg/kg]
CCCN(CCC)C1COc2ccc(O)cc2C1 (stereo unspecified),0.85,79,0.17,13.4
CN1CCc2cccc3c2[C@H]1Cc1ccc(O)c(O)c1-3 [APOMORPHINE],0.04,–,0.021,0.096
CCCN(CCC)C1COc2c(O)cccc2C1 (stereo unspecified),0.05,304,0.013,3.95

# — ChEMBL document CHEMBL1124290, “6- and 8-hydroxy-3,4-dihydro-3-(dipropylamino)-2H-1-benzopyrans. Dopamine agonists with autoreceptor selectivity” (J Med Chem, 1988)
